Results: patent US20250084039A1, “4-SUBSTITUTED AMINOISOQUINOLINE DERIVATIVES” (Purdue Research Foundation, priority 2016, published 2025)
Where two headings read alike, the source gives them in different places. Blank lines part the entries; values can stand above or below the compound they belong to.

What was measured:
[1] = molecular target: TRKC (Homo sapiens (Human), UniProt Q16288); assay: Reaction Biology HotSpot kinase assay; format: biochemical; conditions: 500 nM compound, 100 μM radiolabeled ATP
TRKC, sequence (Q16288 32-839): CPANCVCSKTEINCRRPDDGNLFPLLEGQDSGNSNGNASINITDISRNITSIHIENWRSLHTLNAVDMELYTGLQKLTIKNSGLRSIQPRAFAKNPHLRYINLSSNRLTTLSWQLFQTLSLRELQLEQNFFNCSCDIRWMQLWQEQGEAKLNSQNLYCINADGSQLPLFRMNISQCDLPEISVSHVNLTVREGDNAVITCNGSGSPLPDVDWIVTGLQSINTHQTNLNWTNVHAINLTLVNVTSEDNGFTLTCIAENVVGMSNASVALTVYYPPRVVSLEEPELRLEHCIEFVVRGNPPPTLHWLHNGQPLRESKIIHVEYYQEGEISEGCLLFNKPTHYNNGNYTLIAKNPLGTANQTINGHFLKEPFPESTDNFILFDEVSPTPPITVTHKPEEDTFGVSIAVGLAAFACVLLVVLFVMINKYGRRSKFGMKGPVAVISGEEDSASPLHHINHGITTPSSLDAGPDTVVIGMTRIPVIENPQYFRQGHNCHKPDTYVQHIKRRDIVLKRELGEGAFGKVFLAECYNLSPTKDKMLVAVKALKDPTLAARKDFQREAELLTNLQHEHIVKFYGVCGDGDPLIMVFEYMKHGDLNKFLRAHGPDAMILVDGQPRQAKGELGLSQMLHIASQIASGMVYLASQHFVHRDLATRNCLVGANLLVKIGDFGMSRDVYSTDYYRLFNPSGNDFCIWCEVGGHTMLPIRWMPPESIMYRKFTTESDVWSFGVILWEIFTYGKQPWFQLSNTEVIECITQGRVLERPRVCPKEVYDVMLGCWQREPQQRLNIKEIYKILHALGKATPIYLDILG
Protocol: (§1) The Reaction Biology Corporation (www.reactionbiology.com, Malvern, PA) HotSpot assay platform was used to measure kinase/inhibitor interactions exactly as previously described. Kinase and substrate were mixed in a buffer containing 20 mM HEPES pH 7.5, 10 mM MgCl2, 1 mM EGTA, 0.02% Brij35, 0.02 mg/mL BSA, 0.1 mM Na3VO4, 2 mM DTT and 1% DMSO. Single-dose of compounds (500 nM) were then added to each reaction mixture. After 20-minute incubation. ATP (Sigma) and [γ-^33P] ATP (Perkin Elmer) were added at a final total concentration of 100 μM for addition 2 hours at room temperature, followed by spotting onto P81 ion exchange cellulose chromatography paper (Whatman, Inc.). […] Percent remaining kinase activity of a vehicle (DMSO) containing kinase reaction was calculated for each kinase/inhibitor pair using Prism 5 (GraphPad).
as §1, with “1” for “DTT”, “incubation,” for “incubation.”

[2] = molecular target: c-kit (Homo sapiens (Human), UniProt P10721); assay: Reaction Biology HotSpot kinase assay; format: biochemical; conditions: 500 nM compound, 100 μM radiolabeled ATP
c-kit, sequence (P10721 26-976): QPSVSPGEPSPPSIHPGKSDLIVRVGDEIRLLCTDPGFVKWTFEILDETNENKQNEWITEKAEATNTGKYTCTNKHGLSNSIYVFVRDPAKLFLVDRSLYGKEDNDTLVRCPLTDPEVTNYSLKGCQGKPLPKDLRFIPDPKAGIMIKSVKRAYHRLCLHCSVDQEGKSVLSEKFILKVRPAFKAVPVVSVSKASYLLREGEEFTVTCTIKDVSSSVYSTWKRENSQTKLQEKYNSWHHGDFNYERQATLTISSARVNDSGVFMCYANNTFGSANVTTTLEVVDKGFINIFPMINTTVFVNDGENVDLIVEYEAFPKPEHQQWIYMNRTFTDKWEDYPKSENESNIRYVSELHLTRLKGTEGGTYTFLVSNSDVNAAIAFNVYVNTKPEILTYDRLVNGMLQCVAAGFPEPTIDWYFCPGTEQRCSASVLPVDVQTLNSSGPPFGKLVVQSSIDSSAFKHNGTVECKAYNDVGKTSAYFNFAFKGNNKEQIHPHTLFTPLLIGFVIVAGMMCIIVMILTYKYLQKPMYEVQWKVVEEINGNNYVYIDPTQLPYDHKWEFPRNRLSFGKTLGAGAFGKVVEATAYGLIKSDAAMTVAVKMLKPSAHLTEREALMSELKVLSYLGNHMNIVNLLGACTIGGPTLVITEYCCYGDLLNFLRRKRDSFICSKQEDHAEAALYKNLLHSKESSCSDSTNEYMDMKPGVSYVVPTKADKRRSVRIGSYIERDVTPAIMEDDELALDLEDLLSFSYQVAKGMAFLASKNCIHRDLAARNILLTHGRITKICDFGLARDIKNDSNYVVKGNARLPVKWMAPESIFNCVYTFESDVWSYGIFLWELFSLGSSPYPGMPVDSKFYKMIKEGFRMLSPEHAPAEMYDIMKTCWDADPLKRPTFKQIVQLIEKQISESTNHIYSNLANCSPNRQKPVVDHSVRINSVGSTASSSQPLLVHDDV
Protocol: as §1
as §1, with “1” for “DTT”, “incubation,” for “incubation.”

[3] = tested on: MV4-11; assay: Activity against AML cell line MV4-11 (CellTiter-Blue, 72 h); format: cell-based; conditions: Homo sapiens, MV4-11, 72 h; read-out: IC50 against MV4-11/uM
Protocol: Cells were added to 96 well plates at 2000 cells per well for adherent lines and 4000 cells per well for suspension lines and kept in an incubator overnight. The following day the plates were treated with compounds to give rise to the final concentrations of; 100 μM, 10 μM, 5 μM 1 μM, 500 nM, 100 nM, 10 nM, […]. The plates were then stored in the incubator for 72 hours. On the third day the cells were assayed with 20 μL of CellTiter—Blue Cell Viability Assay per well and were incubated for 4 hours. After 4 hours' fluorescence intensity was taken on a plate reader: Excitation: 560/10 Emission: 590/10. IC50 analysis was performed on GraphPad Prism 7.

[4] = tested on: MV4-11; assay: Anti-proliferative effects in leukemia panel; format: cell-based; conditions: for IC50: Homo sapiens, MV4-11, read-out: Anti-proliferative effects in leukemia panel (μM) MV4-11
Protocol: Molm-14 cells were the kind gift of Dr. Mark Levis from Johns Hopkins University. […] Cell lines were grown and maintained according to ATCC recommendations.
(§2) Cell lines were seeded into 96-well plates the afternoon prior to treatment. Approximately 18 hours later, compounds were semi-serially diluted in dimethyl sulfoxide (DMSO) and then growth medium, and added to cells. Plates were incubated for 72 hours prior to addition of Alamar Blue (Life Technologies. Carlsbad, CA). Plates were read after 4 additional hours of incubation at 37° C. using a Bio-Tek Synergy HT plate reader (Bio-Tek, Winooski. VT). Data was analyzed and graphed using GraphPad Prism Software (Graphpad. La Jolla, CA).

[5] = tested on: K-562; assay: Anti-proliferative effects in leukemia panel; format: cell-based; conditions: Homo sapiens, K562
Protocol: (§3) Molm-14 cells were the kind gift of Dr. Mark Levis from Johns Hopkins University. THP-1, MV4-11, K-562 and MRC-5A cells were purchased from ATCC (ATCC, Manassas, VA). All cell lines were grown in 37° C. with 5% CO2 atmosphere with RPMI 1640 (Life technologies, Carlsbad. CA) supplemented with heat-inactivated 10% (V/V) fetal bovine serum. Cell lines were grown and maintained according to ATCC recommendations.
as §2

[6] = tested on: MOLM14; assay: Anti-proliferative effects in leukemia panel; format: cell-based; conditions: for IC50: Homo sapiens, MOLM-14
Protocol: as §3, §2

[7] = tested on: THP-1; assay: Anti-proliferative effects in leukemia panel; format: cell-based; conditions: Homo sapiens
Protocol: as §3, §2

[8] = tested on: HL60; assay: Anti-proliferative effects in leukemia panel; format: cell-based; conditions: Homo sapiens, HL-60
[9] = tested on: FLT3 phosphorylation; assay: Western blot in MV4-11; format: cell-based, human
Protocol: Total protein extracts were prepared using RIPA buffer (SIGMA) supplemented with Complete Mini™ protease inhibitor and PHOStop™ phosphatase inhibitors (Roche). […] The membrane was blocked with 5% dry milk in 1×TBS/0.1% Tween 20 (TBST) for at least 1 h at room temperature and incubated with human specific primary antibodies: FLT3, Phospho-FLT3, c-Myc (Cell Signaling Technologies), KRAS (Santa Cruz), or mouse anti-β-actin (SIGMA) overnight at 4° C. The membrane was washed 3 times in TBST and incubated with a horseradish peroxidase-conjugated secondary anti-rabbit or anti-mouse antibody (Cell Signaling Technologies) for 1 h at room temperature. Blots were again washed and the signal was detected with SuperSignal West Femto Chemiluminescent Substrate (Pierce) and exposed to HyBlot CL® autoradiography film (Denville).

[10] = tested on: STAT5 phosphorylation; assay: Western blot in MV4-11; format: cell-based, human
Protocol: Effect of HSW630-1 on protein expression was tested in the MV4-11 leukemia cell line. Total protein extracts were prepared using RIPA buffer (SIGMA) supplemented with Complete Mini™ protease inhibitor and PHOStop™ phosphatase inhibitors (Roche). Equal amounts of proteins (up to 25 μg) were separated on 4-12% NuPAGE gels in 1×MOPS or 1×MES buffer (Invitrogen) and transferred onto PVDF membranes (Millipore). The membrane was blocked with 5% dry milk in 1×TBS/0.1% Tween 20 (TBST) for at least 1 h at room temperature and incubated with human specific primary antibodies: FLT3, Phospho-FLT3, c-Myc (Cell Signaling Technologies), KRAS (Santa Cruz), or mouse anti-β-actin (SIGMA) overnight at 4° C. The membrane was washed 3 times in TBST and incubated with a horseradish peroxidase-conjugated secondary anti-rabbit or anti-mouse antibody (Cell Signaling Technologies) for 1 h at room temperature. Blots were again washed and the signal was detected with SuperSignal West Femto Chemiluminescent Substrate (Pierce) and exposed to HyBlot CL® autoradiography film (Denville).
To determine if the phosphorylation of FLT3, SRC kinase and downstream effectors or kinases (such as STAT3 [44], STAT5 [45] and p-38 [46]) could be affected by the compounds. […] The level of SRC kinase increased over time (amount at the 48 h time point is greater than at the 6 and 24 h time points). Unfortunately the bands for the phosphorylated SRC kinase are blurred despite repeated attempts to get clearer bands. […] From the above Western analyses, it is confirmed that the proliferation inhibition of MV4-11 is due to the inhibition of FLT3 signaling axis.

[11] = molecular target: BTK (Homo sapiens (Human), UniProt Q06187); assay: Reaction Biology HotSpot kinase assay; format: biochemical; conditions: 500 nM compound; read-out: Percentage kinase inhibition BTK
BTK, sequence (Q06187 whole entry): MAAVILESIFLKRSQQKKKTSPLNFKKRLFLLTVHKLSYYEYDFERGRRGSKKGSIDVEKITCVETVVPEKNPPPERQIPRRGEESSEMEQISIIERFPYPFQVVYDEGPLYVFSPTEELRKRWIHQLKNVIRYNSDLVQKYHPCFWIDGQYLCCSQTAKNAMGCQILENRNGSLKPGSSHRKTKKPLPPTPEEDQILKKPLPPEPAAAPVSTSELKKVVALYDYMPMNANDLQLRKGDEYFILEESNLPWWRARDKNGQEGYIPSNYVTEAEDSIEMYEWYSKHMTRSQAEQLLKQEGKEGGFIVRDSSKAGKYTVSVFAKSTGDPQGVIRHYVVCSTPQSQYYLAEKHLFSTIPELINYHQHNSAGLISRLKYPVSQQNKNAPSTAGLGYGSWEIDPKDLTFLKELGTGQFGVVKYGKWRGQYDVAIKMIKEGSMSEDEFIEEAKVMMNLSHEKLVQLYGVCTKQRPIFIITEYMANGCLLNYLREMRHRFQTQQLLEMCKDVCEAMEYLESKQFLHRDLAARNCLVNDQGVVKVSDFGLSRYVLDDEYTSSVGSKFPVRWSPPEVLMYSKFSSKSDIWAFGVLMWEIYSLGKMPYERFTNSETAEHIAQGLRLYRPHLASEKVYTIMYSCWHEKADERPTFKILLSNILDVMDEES
Protocol: as §1
as §1, with “1” for “DTT”, “incubation,” for “incubation.”

[12] = tested on: HLY-1; assay: IC50 proliferation assay (Alamar Blue, 72 h); format: cell-based; conditions: read-out: IC50 HLY-1 (lymphoma cell line)
Outline: (§4)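 Cells seeded ~18 h before treatment with semi-serial compound dilutions made in DMSO then growth medium. After 72 h exposure, Alamar Blue added and read following 4 h further at 37 °C; IC50 for proliferation inhibition.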

[13] = tested on: MV4-11; assay: IC50 proliferation assay (Alamar Blue, 72 h); format: cell-based; conditions: read-out: IC50 (proliferation inhibition) Cell line - MV4-11
Outline: as §4

[14] = tested on: MiaPaca-2; assay: IC50 proliferation assay (Alamar Blue, 72 h); format: cell-based; conditions: Homo sapiens, MIA PaCa-2; read-out: IC50 MiaPaca-2 (pancreatic cell line)
Outline: as §4

[15] = molecular target: FGFR1 (Homo sapiens (Human), UniProt P11362); assay: Reaction Biology HotSpot kinase assay; format: biochemical; conditions: 500 nM compound
FGFR1, sequence (P11362 22-822): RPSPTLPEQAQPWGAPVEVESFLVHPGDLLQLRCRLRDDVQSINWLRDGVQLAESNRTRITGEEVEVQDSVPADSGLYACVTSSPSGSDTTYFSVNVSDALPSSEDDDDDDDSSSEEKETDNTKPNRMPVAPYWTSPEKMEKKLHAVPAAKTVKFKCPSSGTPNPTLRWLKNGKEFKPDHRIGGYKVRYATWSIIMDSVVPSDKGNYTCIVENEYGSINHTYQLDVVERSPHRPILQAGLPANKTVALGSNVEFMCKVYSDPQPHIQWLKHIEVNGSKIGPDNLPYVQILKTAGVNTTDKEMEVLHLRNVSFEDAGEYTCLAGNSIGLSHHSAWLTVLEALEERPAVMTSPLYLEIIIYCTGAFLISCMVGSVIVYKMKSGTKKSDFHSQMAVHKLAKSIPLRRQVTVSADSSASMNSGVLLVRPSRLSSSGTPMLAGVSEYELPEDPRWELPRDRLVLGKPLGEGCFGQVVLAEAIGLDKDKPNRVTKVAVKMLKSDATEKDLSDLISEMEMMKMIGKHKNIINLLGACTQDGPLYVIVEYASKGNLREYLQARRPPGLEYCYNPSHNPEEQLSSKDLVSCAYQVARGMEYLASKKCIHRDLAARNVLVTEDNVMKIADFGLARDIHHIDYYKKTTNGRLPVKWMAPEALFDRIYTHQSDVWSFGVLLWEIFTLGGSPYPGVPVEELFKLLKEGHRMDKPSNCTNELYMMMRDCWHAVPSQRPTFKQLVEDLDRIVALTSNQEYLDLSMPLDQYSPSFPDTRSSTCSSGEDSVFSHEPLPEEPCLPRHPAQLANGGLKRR
Protocol: as §1
as §1, with “1” for “DTT”, “incubation,” for “incubation.”

[16] = molecular target: RET (Homo sapiens (Human), UniProt P07949); assay: Reaction Biology HotSpot kinase assay; format: biochemical; conditions: 500 nM compound
Protocol: as §1
as §1, with “1” for “DTT”, “incubation,” for “incubation.”

[17] = molecular target: c-Src (Homo sapiens (Human), UniProt P12931); assay: Reaction Biology HotSpot kinase assay; format: biochemical; conditions: 500 nM compound
c-Src, sequence (P12931 whole entry, looked up): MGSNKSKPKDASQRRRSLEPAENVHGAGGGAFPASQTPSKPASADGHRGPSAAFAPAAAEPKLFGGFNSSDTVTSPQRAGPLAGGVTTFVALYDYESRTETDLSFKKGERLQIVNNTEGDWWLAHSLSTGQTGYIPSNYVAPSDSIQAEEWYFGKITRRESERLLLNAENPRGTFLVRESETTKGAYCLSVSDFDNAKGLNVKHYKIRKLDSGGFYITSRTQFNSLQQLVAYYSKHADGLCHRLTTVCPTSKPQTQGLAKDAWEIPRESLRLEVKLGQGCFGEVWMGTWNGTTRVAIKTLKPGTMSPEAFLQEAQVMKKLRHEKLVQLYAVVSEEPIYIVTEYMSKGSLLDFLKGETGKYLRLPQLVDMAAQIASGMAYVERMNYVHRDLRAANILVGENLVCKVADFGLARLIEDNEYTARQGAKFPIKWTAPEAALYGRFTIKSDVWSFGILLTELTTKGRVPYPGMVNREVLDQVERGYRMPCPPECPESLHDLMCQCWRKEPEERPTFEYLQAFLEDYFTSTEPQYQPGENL
Protocol: as §1
as §1, with “1” for “DTT”, “incubation,” for “incubation.”

[18] = molecular target: FLT3 (Homo sapiens (Human), UniProt P36888); assay: DiscoverX Kd Elect binding
Source text: (§5) Although the current drugs on the market or in clinical trials are relatively successful in killing the AML leukemia cells, they currently are unable to deal with secondary mutations that occur after TKI treatment, such as FLT3 ([…]).
HCK is expressed more in human primary leukemic stem cells than in human normal hematopoietic stem cells. […] Other protein kinases such as SYK, BRAF, p38 (p38MAPK), PDGFRα/β, FGFR1, RET, FLT4, Tie2 have also been linked to leukemia. […] (Table 9). The inhibition of the Src-kinase family could be important clinically because these kinases are downstream of FLT3. In the event of FLT3 mutation, the inhibition of the Src-family kinases could still lead to proliferation inhibition.

[19] = molecular target: FLT3 ITD (Homo sapiens, UniProt P36888); assay: DiscoverX Kd Elect binding
FLT3 ITD, sequence (P36888 whole entry, looked up, change not shown): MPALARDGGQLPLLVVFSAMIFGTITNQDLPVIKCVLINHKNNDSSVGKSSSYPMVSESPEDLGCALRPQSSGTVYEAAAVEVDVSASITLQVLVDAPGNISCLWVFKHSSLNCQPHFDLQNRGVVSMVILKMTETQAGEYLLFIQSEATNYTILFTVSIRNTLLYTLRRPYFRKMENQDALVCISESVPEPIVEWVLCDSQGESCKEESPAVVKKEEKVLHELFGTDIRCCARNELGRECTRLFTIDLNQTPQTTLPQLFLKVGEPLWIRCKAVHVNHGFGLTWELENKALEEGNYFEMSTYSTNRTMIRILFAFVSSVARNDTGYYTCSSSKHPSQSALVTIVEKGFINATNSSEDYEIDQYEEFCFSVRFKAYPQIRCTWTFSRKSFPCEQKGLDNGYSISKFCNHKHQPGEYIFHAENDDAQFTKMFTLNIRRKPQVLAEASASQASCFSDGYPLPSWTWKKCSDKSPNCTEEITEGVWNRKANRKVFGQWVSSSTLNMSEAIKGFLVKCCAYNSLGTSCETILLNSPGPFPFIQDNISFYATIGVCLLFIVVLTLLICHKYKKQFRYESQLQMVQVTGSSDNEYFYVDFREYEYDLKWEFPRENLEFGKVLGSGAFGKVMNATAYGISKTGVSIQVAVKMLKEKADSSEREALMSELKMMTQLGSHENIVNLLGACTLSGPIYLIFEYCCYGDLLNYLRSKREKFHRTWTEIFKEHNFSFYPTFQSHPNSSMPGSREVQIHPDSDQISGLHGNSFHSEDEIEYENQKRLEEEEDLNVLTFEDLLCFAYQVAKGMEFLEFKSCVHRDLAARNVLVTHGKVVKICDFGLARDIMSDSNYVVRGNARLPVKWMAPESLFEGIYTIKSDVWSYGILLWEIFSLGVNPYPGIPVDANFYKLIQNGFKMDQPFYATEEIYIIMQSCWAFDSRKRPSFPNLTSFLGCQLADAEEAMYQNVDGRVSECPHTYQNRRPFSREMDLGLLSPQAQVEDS
Source text: as §5

[20] = tested on: K562; assay: IC50 proliferation assay (Alamar Blue, 72 h); format: cell-based
[21] = tested on: MV-4-11; assay: Proliferation inhibition at single concentration (CellTiter-Blue); format: cell-based; conditions: 1 μM compound
[22] = tested on: HCT116; assay: as above; format: cell-based; conditions: 1 μM compound
[23] = tested on: HeLa; assay: as above; format: cell-based; conditions: 1 μM compound
[24] = tested on: MCF-7; assay: as above; format: cell-based; conditions: 1 μM compound
[25] = tested on: MOLM14; assay: IC50 determination (proliferation assay, CellTiter-Blue); format: cell-based
Protocol: (§6) Cell lines were seeded into 96-well plates the afternoon prior to treatment. Approximately 18 hours later, compounds were diluted in dimethyl sulfoxide (DMSO) and added to cells. Plates were incubated for 72 hours and cells viability determined with CellTiter-Blue Cell Viability Assay (Promega, Madison, WI). Plates were read after 4 additional hours of incubation at 37° C. using plate reader (Bio-Tek, Winooski. VT). Data was analyzed and graphed using GraphPad Prism Software (Graphpad. La Jolla, CA). […]

[26] = tested on: MV4-11; assay: as above; format: cell-based
Protocol: as §6

[27] = molecular target: FLT3 (ITD, F691L) (Homo sapiens, UniProt P36888, F691L/ITD); assay: DiscoverX Kd Elect binding; conditions: read-out: Kd FLT3 (ITD, F691L)
FLT3 (ITD, F691L), sequence (P36888 whole entry, looked up, stated change not applied): as the sequence (P36888 whole entry, looked up, change not shown) above

[28] = tested on: NCI H1703 (NSCLC); assay: Activity against lung cancer cell line; format: cell-based
[29] = tested on: MV4-11; assay: In vivo efficacy, NSG mice injected with MV4-11; conditions: 25 mg/kg, three times per week, NSG mice with MV4-11
Protocol: Method: Six week old female NSG mice were injected intravenously with 1×10^6 logarithmically growing MV4-11 cells expressing luciferase (MV4-11). Luciferase expressing leukemia cells were imaged using the IVIS Xenogen system (Perkin Elmer, Waltham MA). On day of imaging, mice are injected IP with 150 mg/kg luciferin (Perkin Elmer, Waltham, MA), anaesthetized and then placed in imaging chamber. Maximal luminescence is recorded and then averaged among each treatment group. Ten days post cell injection, mice were imaged and then sorted into groups so that leukemic burden was similar and dosing started. Mice were dosed either with vehicle (10% DMSO/10% Tween 20/80% saline) or 25 mg/kg of compounds three times per week for the duration of the experiment. Mice were weighed and observed five days per week and imaged once per week.

[30] = molecular target: FLT3 (ITD) (Homo sapiens, UniProt P36888, ITD); assay: DiscoverX Kd Elect binding; conditions: read-out: Kd FLT3 (ITD)
FLT3 (ITD), sequence (P36888 whole entry, looked up, change not shown): as above
Source text: as §5

SMILES: Nc1ncc2ccc(Cl)cc2c1C#Cc1ccc(C2=NCCN2)cc1 [HSM1651, 6-chloro-4-((4-(4,5-dihydro-1H-imidazol-2-yl)phenyl)ethynyl)isoquinolin-3-amine]
- inhibition at 0.5 µM [1]: 64%
- inhibition at 0.5 µM [2]: 83%
- IC50 [3]: 0.008 µM
- anti-proliferative activity in words, MV4-11 / AML cell lines [4]: good inhibitor
- IC50 [4]: 0.05 ± 0.01 µM
- IC50 [5]: 1.39 µM
- anti-proliferative activity in words, MOLM-14 [6]: good inhibitor
- IC50 [6]: 0.11 µM
- IC50 [7]: 1.85 µM
- IC50 [8]: 3.05 µM
- FLT3 phosphorylation (Western) [9]: reduced
- STAT5 phosphorylation (Western) [10]: reduced

SMILES: CC1(C)CNC(c2ccc(C#Cc3cc(N)nc4ccccc34)cc2F)=N1 [HSM1856, 4-((4-(4,4-dimethyl-4,5-dihydro-1H-imidazol-2-yl)-3-fluorophenyl)ethynyl)quinolin-2-amine]
- inhibition at 0.5 µM [11]: 70%
- IC50 [12]: 80 nM
- IC50 ([13]; Homo sapiens, MV4-11, 72 h): 25 nM
- IC50 [14]: 400 nM

SMILES: Cc1ncc(C(=O)Nc2ccc(CN3CCN(C)CC3)c(C(F)(F)F)c2)cc1C#Cc1c(N)ncc2ccc(F)cc12 [HSN431]
- Kd [19]: 4.8 nM
- Kd [27]: 57 nM
- IC50 [26]: < 1 nM
- IC50 [28]: 247 nM
- in-vivo efficacy (survival) [29]: efficacious

SMILES: N=C(N)c1ccc(/N=N/c2c(N)ncc3ccc(Br)cc23)cc1 [HSW630-1]
- inhibition at 0.5 µM [2]: 68%
- IC50 [4]: 0.15 ± 0.01 µM
- IC50 [5]: 3 µM
- IC50 [6]: 0.15 ± 0.01 µM
- IC50 [7]: 1.2 µM

Further lines, with some results ahead:

- Percentage kinase inhibition FGFR1 [15]: 3%
- Percentage kinase inhibition RET [16]: 0%
- Percentage kinase inhibition c-Src [17]: 1%
- Kd [18]: 53 nM
- Kd [19]: 450 nM
- IC50 ([20]; 72 h, read-out: IC50 (proliferation inhibition) Cell line - K562): 1440 nM
- IC50 ([20]; Table 18, read-out: Inhibition of proliferation of K562 cell lines (CML)): 1443 ± 0.21 nM
- IC50 ([13]; 72 h): 171 nM
- IC50 [25]: 187 ± 5.5 nM
- IC50 [26]: 144 ± 2.6 nM
SMILES: Cc1ccc(C(=O)NCC(O)CN(C)C)cc1C#Cc1c(N)ncc2ccc(Cl)cc12 (stereo not drawn) [HSN178]
- Percent inhibition of proliferation MV-4-11 [21]: 98%
- Percent inhibition of proliferation HCT116 [22]: 97%
- Percent inhibition of proliferation HeLa [23]: 100%
- Percent inhibition of proliferation MCF-7 [24]: 100%
- proliferation inhibition in words, MV4-11 / AML [26]: only moderate inhibitors

- Kd [30]: 7.9 nM
- Kd [27]: 91 nM
- IC50 ([26]; Homo sapiens, MV4-11): < 1 nM
SMILES: Cc1ncc(C(=O)Nc2ccc(CN3CCN(C)CC3)c(C(F)(F)F)c2)cc1C#Cc1cnc(N)c2ccccc12 [HSN461, 5-((1-aminoisoquinolin-4-yl)ethynyl)-6-methyl-N-(4-((4-methylpiperazin-1-yl)methyl)-3-(trifluoromethyl)phenyl)nicotinamide]
- IC50 ([28]; Homo sapiens, NCI-H1703): 157 nM
